Measured values reported in patent publication US12569509B2, “Method and composition for preventing and treating viral infections” (priority 2017, dated 2026).
Entries after “also recorded” stand apart in the source; their conditions may differ.

What was measured:
human PBMC [1] = test: LPS stimulated cytokine secretion in human PBMC pretreated with compounds (Phase 2); format: cell-based; design: TNF-α concentration in supernatant / IL-1β concentration in supernatant / IL-6 concentration in supernatant / IL-2 concentration in supernatant / IFN-g concentration in supernatant: unit of the concentration uncertain; details: for Effect on LPS stimulated secretion of IL-1b / Effect on LPS stimulated secretion of IL-6: 200 mM (so in the source), 2 h pretreatment, 1 ng/mL LPS 8 hours; for IL-2 concentration in supernatant / TNF-α concentration in supernatant / IL-1β concentration in supernatant / IFN-g concentration in supernatant / IL-6 concentration in supernatant: 8-hour 1 ng/mL LPS stimulation; for IL-2 concentration in supernatant: LLOQ = 1.698 pg/mL; for TNF-α concentration in supernatant: LLOQ = 2.018 pg/mL; for IL-1β concentration in supernatant: LLOQ = 2.299 pg/mL; for IFN-g concentration in supernatant: LLOQ = 2.792 pg/mL; for IL-6 concentration in supernatant: LLOQ = 0.831
Text: Results are represented as fold-change relative to LPS treatment alone for each cytokine calculated by means from 3 separate donors.
RPMI medium alone, RPMI supplemented with 0.2% DMSO (to mimic treatment conditions) or LPS stimulation alone were used as controls.
Except for the two negative control conditions, all 3 donors responded to all experimental conditions tested with the secretion of TNF-α, IL-1β, and IL-6 albeit with a high degree of variability.

human PBMC [2] = test: Test compound induced cytokine secretion in human PBMC without LPS, 10 or 26 hours (Phase 1); details: 100 mM (so in the source), 10 hours, no LPS
Method: Secretion of the cytokines TNF-α (A), IL-1β (B) and IL-6 (C) were measured in supernatant of PBMC cultured in the presence of test compounds using a Luminex platform with the Milliplex MAP Human High Sensitivity T Cell Panel Immunology Multiplex Assay. Results are represented as a mean from 3 separate donors in pg/mL.
Whole blood was collected from 3 human donors and peripheral blood mononuclear cells (PBMC) were isolated using the Ficoll-Paque density gradient method. PBMC were then plated and left untouched for 2 hours to account for a 2 hours pretreatement period (see below for details), and incubated for 8 or 24 hours in a humidified incubator set to maintain 37° C. with 5% CO2, with different concentrations of LPS as per Table 11 in order to determine the optimal stimulation conditions to detect cytokine release. […] RPMI medium alone or supplemented with 0.1% DMSO (to mimic treatment conditions) were used as negative controls.
At the end of the incubation period, supernatant samples were recovered and stored at −80° C. until analysis (in duplicate) using a Luminex platform with the Milliplex MAP Human High Sensitivity T Cell Panel Immunology Multiplex Assay (Cat. No. HSTCMAG-28SK) with the following selected cytokines of interest: IL-1, IL-2, IL-6, IFN-g and TNF-α. Each assay was defined by one calibration curve and 2 sets of QCs and the results were expressed as pg/mL.

For `O=C(O)c1cc(O)c(O)c(O)c1` [Gallic Acid, Gallic acid], the “Effect on LPS stimulated secretion of IL-1b” value (human PBMC [1]) was “inhibition”, the “Effect on LPS stimulated secretion of IL-6” value (human PBMC [1]) was “inhibition” and the “Effect on LPS stimulated secretion of IL-1b” value (human PBMC [1]; listed as gallic acid) was “decrease; also recorded: inhibits”. The “Effect on LPS stimulated secretion of IL-6” value (human PBMC [1]; listed as gallic acid) was “decrease; also recorded: inhibits”, the “IL-2 concentration in supernatant” value (human PBMC [1]; Donor 1, 10 (unit uncertain)) was “<LLOQ” and the “TNF-α concentration in supernatant” value (human PBMC [1]; Donor 1, 10 (unit uncertain)) was 2295.37 pg/mL. For the same compound, the “IL-1β concentration in supernatant” value (human PBMC [1]; Donor 1, 10 (unit uncertain)) was 4009.57 pg/mL, the “IFN-g concentration in supernatant” value (human PBMC [1]; Donor 1, 10 (unit uncertain)) was “<LLOQ” and the “IL-6 concentration in supernatant” value (human PBMC [1]; Donor 1, 10 (unit uncertain)) was 1244.44 pg/mL. The “IL-2 concentration in supernatant” value (human PBMC [1]; Donor 1, 100 (unit uncertain)) was “<LLOQ”, the “TNF-α concentration in supernatant” value (human PBMC [1]; Donor 1, 100 (unit uncertain)) was 2673.83 pg/mL and the “IL-1β concentration in supernatant” value (human PBMC [1]; Donor 1, 100 (unit uncertain)) was 2029.63 pg/mL. The “IFN-g concentration in supernatant” value (human PBMC [1]; Donor 1, 100 (unit uncertain)) was “<LLOQ”, the “IL-6 concentration in supernatant” value (human PBMC [1]; Donor 1, 100 (unit uncertain)) was 776.23 pg/mL and the “IL-2 concentration in supernatant” value (human PBMC [1]; Donor 1, 200 (unit uncertain)) was “<LLOQ”. The “TNF-α concentration in supernatant” value (human PBMC [1]; Donor 1, 200 (unit uncertain)) was 1973.87 pg/mL, the “IL-1β concentration in supernatant” value (human PBMC [1]; Donor 1, 200 (unit uncertain)) was 905.16 pg/mL and the “IFN-g concentration in supernatant” value (human PBMC [1]; Donor 1, 200 (unit uncertain)) was “<LLOQ”. The “IL-6 concentration in supernatant” value (human PBMC [1]; Donor 1, 200 (unit uncertain)) was 466.09 pg/mL, the “IL-2 concentration in supernatant” value (human PBMC [1]; Donor 2, 10 (unit uncertain)) was “<LLOQ” and the “TNF-α concentration in supernatant” value (human PBMC [1]; Donor 2, 10 (unit uncertain)) was 924.89 pg/mL. For the same compound, the “IL-1β concentration in supernatant” value (human PBMC [1]; Donor 2, 10 (unit uncertain)) was 2259.03 pg/mL, the “IFN-g concentration in supernatant” value (human PBMC [1]; Donor 2, 10 (unit uncertain)) was “<LLOQ” and the “IL-6 concentration in supernatant” value (human PBMC [1]; Donor 2, 10 (unit uncertain)) was 547.26 pg/mL. The “IL-2 concentration in supernatant” value (human PBMC [1]; Donor 2, 100 (unit uncertain)) was “<LLOQ”, the “TNF-α concentration in supernatant” value (human PBMC [1]; Donor 2, 100 (unit uncertain)) was 2001.65 pg/mL and the “IL-1β concentration in supernatant” value (human PBMC [1]; Donor 2, 100 (unit uncertain)) was 1867.42 pg/mL. The “IFN-g concentration in supernatant” value (human PBMC [1]; Donor 2, 100 (unit uncertain)) was “<LLOQ”, the “IL-6 concentration in supernatant” value (human PBMC [1]; Donor 2, 100 (unit uncertain)) was 694.6 pg/mL and the “IL-2 concentration in supernatant” value (human PBMC [1]; Donor 2, 200 (unit uncertain)) was “<LLOQ”. For the same compound, the “TNF-α concentration in supernatant” value (human PBMC [1]; Donor 2, 200 (unit uncertain)) was 1867.55 pg/mL, the “IL-1β concentration in supernatant” value (human PBMC [1]; Donor 2, 200 (unit uncertain)) was 858.76 pg/mL and the “IFN-g concentration in supernatant” value (human PBMC [1]; Donor 2, 200 (unit uncertain)) was “<LLOQ”. The “IL-6 concentration in supernatant” value (human PBMC [1]; Donor 2, 200 (unit uncertain)) was 426.3 pg/mL, the “IL-2 concentration in supernatant” value (human PBMC [1]; Donor 3, 10 (unit uncertain)) was “<LLOQ” and the “TNF-α concentration in supernatant” value (human PBMC [1]; Donor 3, 10 (unit uncertain)) was 4990.73 pg/mL. For the same compound, the “IL-1β concentration in supernatant” value (human PBMC [1]; Donor 3, 10 (unit uncertain)) was 4065.13 pg/mL, the “IFN-g concentration in supernatant” value (human PBMC [1]; Donor 3, 10 (unit uncertain)) was “<LLOQ” and the “IL-6 concentration in supernatant” value (human PBMC [1]; Donor 3, 10 (unit uncertain)) was 547.26 pg/mL. The “IL-2 concentration in supernatant” value (human PBMC [1]; Donor 3, 100 (unit uncertain)) was “<LLOQ”, the “TNF-α concentration in supernatant” value (human PBMC [1]; Donor 3, 100 (unit uncertain)) was 3070.21 pg/mL and the “IL-1β concentration in supernatant” value (human PBMC [1]; Donor 3, 100 (unit uncertain)) was 1788.4 pg/mL. The “IFN-g concentration in supernatant” value (human PBMC [1]; Donor 3, 100 (unit uncertain)) was “<LLOQ”, the “IL-6 concentration in supernatant” value (human PBMC [1]; Donor 3, 100 (unit uncertain)) was 694.6 pg/mL and the “IL-2 concentration in supernatant” value (human PBMC [1]; Donor 3, 200 (unit uncertain)) was “<LLOQ”. For the same compound, the “TNF-α concentration in supernatant” value (human PBMC [1]; Donor 3, 200 (unit uncertain)) was 4121.3 pg/mL, the “IL-1β concentration in supernatant” value (human PBMC [1]; Donor 3, 200 (unit uncertain)) was 1478.91 pg/mL and the “IFN-g concentration in supernatant” value (human PBMC [1]; Donor 3, 200 (unit uncertain)) was “<LLOQ”. For the same compound, the “IL-6 concentration in supernatant” value (human PBMC [1]; Donor 3, 200 (unit uncertain)) was 426.3 pg/mL and the “TNF-α, IL-1β, and/or IL-6 production, compound alone” value (human PBMC [2]) was “minor increases”.
